Experimental data published in patent US20190185518A9, “WARHEAD-CONTAINING PEPTIDOMIMETIC MACROCYCLES AS MODULATORS OF BFL-1” (AILERON Therapeutics, Inc., priority 2017, published 2019).
Read-outs that look alike come from different tables or passages of the source.

Experiments:
[1] = tested on: ABT-199 resistant Burkitt lymphoma Raji cells; assay: WST-1 anti-proliferative activity in Raji cells; assay type: cell-based, Human; conditions: TABLE 9, Raji cell proliferation
Text: WST-1 is a cell proliferation reagent that is used in colorimetric assays designed to measure the relative proliferation rates of cells in culture. The assay is based on the conversion of the tetrazolium salt WST-1 into a colored dye by mitochondrial dehydrogenase enzymes. The soluble salt is released into the media. Within a given time period, the reaction produces a color change that is directly proportional to the amount of mitochondrial dehydrogenase in a culture. The WST-1 assay measures the net metabolic activity of cells.

[2] = target: Mcl-1 (Homo sapiens, UniProt Q07820); conditions: cited from earlier work
Mcl-1, sequence (Q07820 whole entry, species assumed): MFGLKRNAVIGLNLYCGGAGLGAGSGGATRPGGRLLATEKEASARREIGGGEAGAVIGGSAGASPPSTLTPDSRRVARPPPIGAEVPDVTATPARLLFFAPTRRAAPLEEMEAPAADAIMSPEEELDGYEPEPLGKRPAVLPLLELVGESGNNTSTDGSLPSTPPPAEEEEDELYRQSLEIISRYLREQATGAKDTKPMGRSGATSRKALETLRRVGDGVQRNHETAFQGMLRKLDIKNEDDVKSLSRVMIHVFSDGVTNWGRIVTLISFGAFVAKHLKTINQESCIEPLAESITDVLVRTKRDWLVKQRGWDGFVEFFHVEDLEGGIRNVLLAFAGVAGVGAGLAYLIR

[3] = tested on: MCL-1 driven Raji cells; assay: cells; conditions: Homo sapiens, read-out: EC50 (anti-proliferative effects)
[4] = tested on: Mcl-1, Bcl-xL, Bcl-2; assay: BCL-2 family selectivity profile; assay type: binding; conditions: TABLE 8
Text: The binding spectrum of stapled BIM BH3 peptides were tuned for BCL-2 family selectivity. […] ABT-199 is venetoclax, and † represents values reported in the literature.

[5] = target: T1, MCL-1/BAK protein-protein interaction (Homo sapiens, UniProt Q07820); assay: MCL-1 displacement study (BAK FRET signal); assay type: cell-based; conditions: 5 μM or 10 μM
T1 construct: host or cells: Raji
T1 sequence (Q07820 whole entry): as the sequence (Q07820 whole entry, species assumed) above
Experimental: BIM peptidomimetic macrocycles were tested for displacement of MCL-1 from a BAK fluorescence resonance energy transfer (FRET) peptide.
FIG. 19 compares normalized FRET signals of samples to determine the samples' effects in disrupting MCL-1/BAK protein-protein interactions.

[6] = tested on: Mcl-1, Bcl-xL, Bcl-2; conditions: TABLE 8; † reported in the literature; cited from earlier work
[7] = tested on: A375-P melanoma cells; assay: Cell viability (CellTiter-Glo), A375-P; assay type: cell-based; conditions: 40 μM
Experimental: (§1) Cancer cells were cultured using a standard culture medium containing 10% fetal bovine serum (FBS) and penicillin-streptomycin (A375P: DMEM; SK-MEL-2, SK-MEL-28: EMEM). Cells were plated in 96-well plates (5×10^3 cells per well) and, after overnight incubation, treated with the indicated concentrations of Stapled Peptides in the corresponding medium supplemented with 5% FBS for the indicated durations. Cell viability and caspase-3/7 activation was measured using CellTiter-Glo and Caspase-Glo 3/7 chemiluminescence reagents (Promega), respectively. Luminescence was detected by a microplate reader (Spectramax M5, Molecular Devices).

[8] = tested on: SK-MEL-2 melanoma cells; assay: Cell viability (CellTiter-Glo), SK-MEL-2; assay type: cell-based; conditions: 40 μM
Experimental: as §1

[9] = tested on: SK-MEL-28 melanoma cells; assay: Cell viability (CellTiter-Glo), SK-MEL-28; assay type: cell-based; conditions: 40 μM
Experimental: as §1

[10] = tested on: A375-P melanoma cells; assay: Caspase-3/7 activation (Caspase-Glo 3/7), A375-P; assay type: cell-based; conditions: A375-P cells, 40 μM
Experimental: as §1

[11] = tested on: SK-MEL-2 melanoma cells; assay: Caspase-3/7 activation (Caspase-Glo 3/7), SK-MEL-2; assay type: cell-based; conditions: SK-MEL-2 cells, 40 μM
Experimental: as §1

[12] = tested on: SK-MEL-28 melanoma cells; assay: Caspase-3/7 activation (Caspase-Glo 3/7), SK-MEL-28; assay type: cell-based; conditions: SK-MEL-28 cells, 40 μM
Experimental: as §1

IC50 ([1]; Homo sapiens) [µM] | EC50 [3] [µM] | disrupting the MCL-1/BAK protein-protein interaction (normalized FRET signal) [5] | IC50 [1] [µM] | SMILES | Ki ([2]; TABLE 6, † values reported in the literature) [µM] | Ki ([2]; TABLE 8, † reported in the literature) [µM] | Profile [4] | Profile [6] | proliferation ([7]; A375-P cells) | % cell viability ([7]; A375-P, 5% serum) | % cell viability ([8]; SK-MEL-2, 5% serum) | proliferation ([8]; SK-MEL-2 cells) | % cell viability ([9]; SK-MEL-28, 5% serum) | proliferation ([9]; SK-MEL-28 cells) | apoptosis induction [10] | apoptosis induction [11] | apoptosis induction [12]
3.1 | 3.7 to 4.9 |  |  | CC1(C)CCC(CN2CCN(c3ccc(C(=O)NS(=O)(=O)c4ccc(NCC5CCOCC5)c([N+](=O)[O-])c4)c(Oc4cnc5[nH]ccc5c4)c3)CC2)=C(c2ccc(Cl)cc2)C1 [ABT-199, venetoclax] | > 0.444 | > 0.444 |  |  |  |  |  |  |  |  |  |  | 
 |  | did not disrupt |  | CC1(C)CCC(c2ccc(Cl)cc2)=C(CN2CCN(c3ccc(C(=O)NS(=O)(=O)c4ccc(N[C@H](CCN5CCOCC5)CSc5ccccc5)c(S(=O)(=O)C(F)(F)F)c4)cc3)CC2)C1 [ABT-263, navitoclax, reference compound] |  |  | Bcl-xL/Bcl-2 selective | Bcl-xL/Bcl-2 selective |  |  |  |  |  |  |  |  | 
 |  |  | 23.7 | CC[C@H](C)[C@H](NC(C)=O)C(=O)N[C@@H](Cc1c[nH]c2ccccc12)C(=O)N[C@H](C(=O)N[C@@H](C)C(=O)N[C@@H](CCC(N)=O)C(=O)N[C@@H](CCC(=O)O)C(=O)N[C@@H](CC(C)C)C(=O)N[C@@H](CCCNC(=N)N)C(=O)N[C@@]1(C)CCCC=CCCC[C@@](C)(C(=O)N[C@@H](Cc2ccccc2)C(=O)N[C@@H](CC(N)=O)C(=O)N[C@@H](C)C(=O)N[C@@H](Cc2ccc(O)cc2)C(=O)N[C@@H](Cc2ccc(O)cc2)C(=O)N[C@@H](C)C(=O)N[C@@H](CCCNC(=N)N)C(=O)N[C@@H](CCCNC(=N)N)C(N)=O)NC(=O)[C@H](CC(=O)O)NC(=O)CNC(=O)[C@H]([C@@H](C)CC)NC1=O)[C@@H](C)CC [BIM SAHBA1] |  |  | Pan-selective |  | neither BIM SAHBA1 nor Aileron peptide 1 affected proliferation | had no effect on % viability | had no effect on % viability | neither BIM SAHBA1 nor Aileron peptide 1 affected proliferation | had no effect on % viability | neither BIM SAHBA1 nor Aileron peptide 1 affected proliferation | neither BIM SAHBA1 nor Aileron peptide 1 affected proliferation and apoptosis induction | neither BIM SAHBA1 nor Aileron peptide 1 affected proliferation and apoptosis induction | neither BIM SAHBA1 nor Aileron peptide 1 affected proliferation and apoptosis induction
